Drawing on patent publication US8008303B2, “Biphenyl derivatives and their use in treating hepatitis C” (AstraZeneca AB, priority 2005, dated 2011), this text covers IC50 and TD50 for 10 molecules.

Each structure is given as a SMILES string. Where two headings read alike, the source gives them in different places.

Data set [1] deals with HCV replicon cells Huh 9B. Nature of the data set: HCV replicon assay (luciferase readout). The class given is cell-based. A digest of the protocol:
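Compounds, made up at twice final strength (final DMSO 1%), were added to subgenomic replicon cells one day after plating. Incubation then ran 72 h at 37 °C, 5% CO2, without G418. Replication was quantified as firefly luciferase luminescence in lysed cells, with cytotoxicity assessed on a duplicate clear plate.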
Background: A replicon is a self-replicating genome or part of one, used to study replication in cells.

Data set [2] concerns HCV replicon cells Huh 9B. The class given is cell-based.
[3] abbreviates: Hepatitis C virus, 72 h, concentration reducing replicon level (luciferase activity) by 50% vs untreated cell control, 72 h incubation.
[4] abbreviates: concentration reducing total cell area by 50% relative to DMSO controls, methylene blue, absorbance 620 nm, 72 h incubation.

Take `O=C(Nc1ccc2cc[nH]c2c1)c1ccc(-c2cccc(C(=O)Nc3ccc(N4CCOCC4)cc3)c2)cc1` [Example 60, Biphenyl-3,4′-dicarboxylic acid 4′-[(1H-indol-6-yl)-amide] 3-[(4-morpholin-4-yl-phenyl)-amide]]: the IC50 (in general, the concentration that gives 50% inhibition) in data set [1] was below 1000 nM. Besides, in data set [2], the TD50 entry is “* (key: * < 50 μM; ** > 50 μM)”.

`Cc1ccc(C(=O)Nc2ccc(N3CCOCC3)cc2)cc1-c1ccc(C(=O)Nc2cccc(OCc3ccccc3)c2)cc1` [Example 8, 6-Methyl-biphenyl-3,4′-dicarboxylic acid 4′-[(3-benzyloxy-phenyl)-amide] 3-[(4-morpholin-4-yl-phenyl)-amide]] yielded an IC50 in data set [1] of 1000 to 5000 nM. In addition, the TD50 entry in data set [2] is “** (key: * < 50 μM; ** > 50 μM)”.

For `Cc1ccc(NC(=O)c2ccc(N3CCOCC3)cc2)cc1-c1ccc(C(=O)NCc2cccc(Br)c2)cc1` [Example 88, 2′-Methyl-5′-(4-morpholin-4-yl-benzoylamino)-biphenyl-4-carboxylic acid 3-bromo-benzylamide], the IC50 in data set [1] (setting [3]) was 1000 to 5000 nM. Moreover, in data set [2] (setting [4]), the TD50 result is listed as “** (** > 50 μM)”.

Molecule `COc1ccc(S(=O)(=O)Nc2ccc(N3CCOCC3)cc2)cc1-c1ccc(C(=O)Nc2ccc(CN3CCS(=O)(=O)CC3)cc2)cc1` [Example 244, 2′-Methoxy-5′-(4-morpholin-4-yl-phenylsulfamoyl)-biphenyl-4-carboxylic acid [4-(1,1-dioxo-1lambda*6*-thiomorpholin-4-ylmethyl)-phenyl]-amide] displayed an IC50 in data set [1] (setting [3]) below 1000 nM. For the same molecule, the TD50 result in data set [2] (setting [4]) is “* (* < 50 μM)”.

For `Cc1ccc(NC(=O)c2ccc(Br)cc2)cc1-c1ccc(C(=O)Nc2ccc3cn[nH]c3c2)cc1` [Example 211, 5′-(4-Bromo-benzoylamino)-2′-methyl-biphenyl-4-carboxylic acid (1H-indazol-6-yl)-amide], in data set [1] (setting [3]), the IC50 lay in the range of 1000 to 5000 nM. Also, the TD50 entry in data set [2] (setting [4]) is “* (* < 50 μM)”.

The molecule `Cc1ccc(C(=O)Nc2ccc(N3CCOCC3)cc2)cc1-c1ccc(C(=O)Nc2ccc(C(=O)N(C)C)cc2)cc1` [Example 70, 6-Methyl-biphenyl-3,4′-dicarboxylic acid 4′-[(4-dimethylcarbamoyl-phenyl)-amide] 3-[(4-morpholin-4-yl-phenyl)-amide]] returned an IC50 in data set [1] of 1000 to 5000 nM. For the same molecule, the TD50 entry in data set [2] is on record as “* (key: * < 50 μM; ** > 50 μM)”.

Regarding `Cc1ccc(NC(=O)c2ccc(N3CCOCC3)cc2)cc1-c1ccc(C(=O)NCc2cccc(OC(F)(F)F)c2)cc1` [Example 92, 2′-Methyl-5′-(4-morpholin-4-yl-benzoylamino)-biphenyl-4-carboxylic acid 3-trifluoromethoxy-benzylamide], the IC50 in data set [1] (setting [3]) lay in the range of 1000 to 5000 nM. The TD50 result in data set [2] (setting [4]) was “** (** > 50 μM)”.

Turning to `COc1cccc(NC(=O)c2ccc(-c3cc(C(=O)Nc4ccc(N5CCOCC5)cc4)ccc3C)cc2)c1` [Example 33, 6-Methyl-biphenyl-3,4′-dicarboxylic acid 4′-[(3-methoxy-phenyl)-amide] 3-[(4-morpholin-4-yl-phenyl)-amide]], the IC50 in data set [1] is below 1000 nM. The TD50 entry in data set [2] is “** (key: * < 50 μM; ** > 50 μM)”.

`Cc1ccc(NC(=O)C2CC2)cc1-c1ccc(C(=O)Nc2ccc(CN(C)C)cc2)cc1` [Example 223, 5′-(Cyclopropanecarbonyl-amino)-2′-methyl-biphenyl-4-carboxylic acid (4-dimethylaminomethyl-phenyl)-amide] displayed an IC50 in data set [1] (setting [3]) of 1000 to 5000 nM. For the same molecule, in data set [2] (setting [4]), the TD50 entry is listed as “* (* < 50 μM)”.

With `Cc1ccc(C(=O)Nc2ccc(N3CCOCC3)cc2)cc1-c1ccc(C(=O)Nc2cccc(-c3ccn(C)n3)c2)cc1` [Example 26, 6-Methyl-biphenyl-3,4′-dicarboxylic acid 4′-{[3-(1-methyl-1H-pyrazol-3-yl)-phenyl]-amide} 3-[(4-morpholin-4-yl-phenyl)-amide]], the IC50 in data set [1] was above 5000 nM. Further, the TD50 entry in data set [2] is “** (key: * < 50 μM; ** > 50 μM)”.
